The source of these data is patent publication US20120245137A1 (Zalicus Pharmaceuticals Ltd., priority 2009, published 2012).

The structures appear in SMILES notation. Bounds are passed on as bounds.

Common to all, as to type: cell-based
For assay [1], the target named is human α1G T-type channels (Homo sapiens, UniProt O43497). The experiment in a line: T-type calcium channel block, whole cell patch clamp, α1G. The following applies: HEK cells stably expressing human α1G; mainly non-inactivated protocol; values above 10,000 nM represented as 10000. In short, it runs like this: (§1)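 Cells are stable HEK 293 lines carrying human α1G or α1H channels, patched in whole-cell mode. Resting block comes from the non-inactivated pre-pulse; voltage-dependent block from the inactivated protocol.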
(In patch-clamp work, channel activity is measured electrically.)

In assay [2] the target is human α1H T-type channels (Homo sapiens, UniProt O95180). The experiment in a line: T-type calcium channel block, whole cell patch clamp, α1H. The following applies: HEK cells stably expressing human α1H; mainly non-inactivated protocol; values above 10,000 nM represented as 10000. In a few lines:
as §1

In assay [3] the target is N-type calcium channel subunits (α1B, α2δ, and β3a) (Homo sapiens, UniProt Q00975). The experiment in a line: Block of Cav2.2 channel, whole cell voltage clamp, manual and PatchXpress. The conditions noted are these: Table 5; table follows Assay Example 3 (whole cell voltage clamp / PatchXpress); assay not given. In a few lines:
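Percent block taken as current amplitude ratio with versus without compound, applied in rising doses; IC50 fitted where one cell received multiple doses. Protocol: 50 ms pulses to +20 mV at 0.067 Hz from […] or −90 mV holding; P/n leak subtraction, no junction-potential correction; manual and PatchXpress recordings.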

Sequence of N-type calcium channel subunits (α1B, α2δ, and β3a) (Q00975 whole entry): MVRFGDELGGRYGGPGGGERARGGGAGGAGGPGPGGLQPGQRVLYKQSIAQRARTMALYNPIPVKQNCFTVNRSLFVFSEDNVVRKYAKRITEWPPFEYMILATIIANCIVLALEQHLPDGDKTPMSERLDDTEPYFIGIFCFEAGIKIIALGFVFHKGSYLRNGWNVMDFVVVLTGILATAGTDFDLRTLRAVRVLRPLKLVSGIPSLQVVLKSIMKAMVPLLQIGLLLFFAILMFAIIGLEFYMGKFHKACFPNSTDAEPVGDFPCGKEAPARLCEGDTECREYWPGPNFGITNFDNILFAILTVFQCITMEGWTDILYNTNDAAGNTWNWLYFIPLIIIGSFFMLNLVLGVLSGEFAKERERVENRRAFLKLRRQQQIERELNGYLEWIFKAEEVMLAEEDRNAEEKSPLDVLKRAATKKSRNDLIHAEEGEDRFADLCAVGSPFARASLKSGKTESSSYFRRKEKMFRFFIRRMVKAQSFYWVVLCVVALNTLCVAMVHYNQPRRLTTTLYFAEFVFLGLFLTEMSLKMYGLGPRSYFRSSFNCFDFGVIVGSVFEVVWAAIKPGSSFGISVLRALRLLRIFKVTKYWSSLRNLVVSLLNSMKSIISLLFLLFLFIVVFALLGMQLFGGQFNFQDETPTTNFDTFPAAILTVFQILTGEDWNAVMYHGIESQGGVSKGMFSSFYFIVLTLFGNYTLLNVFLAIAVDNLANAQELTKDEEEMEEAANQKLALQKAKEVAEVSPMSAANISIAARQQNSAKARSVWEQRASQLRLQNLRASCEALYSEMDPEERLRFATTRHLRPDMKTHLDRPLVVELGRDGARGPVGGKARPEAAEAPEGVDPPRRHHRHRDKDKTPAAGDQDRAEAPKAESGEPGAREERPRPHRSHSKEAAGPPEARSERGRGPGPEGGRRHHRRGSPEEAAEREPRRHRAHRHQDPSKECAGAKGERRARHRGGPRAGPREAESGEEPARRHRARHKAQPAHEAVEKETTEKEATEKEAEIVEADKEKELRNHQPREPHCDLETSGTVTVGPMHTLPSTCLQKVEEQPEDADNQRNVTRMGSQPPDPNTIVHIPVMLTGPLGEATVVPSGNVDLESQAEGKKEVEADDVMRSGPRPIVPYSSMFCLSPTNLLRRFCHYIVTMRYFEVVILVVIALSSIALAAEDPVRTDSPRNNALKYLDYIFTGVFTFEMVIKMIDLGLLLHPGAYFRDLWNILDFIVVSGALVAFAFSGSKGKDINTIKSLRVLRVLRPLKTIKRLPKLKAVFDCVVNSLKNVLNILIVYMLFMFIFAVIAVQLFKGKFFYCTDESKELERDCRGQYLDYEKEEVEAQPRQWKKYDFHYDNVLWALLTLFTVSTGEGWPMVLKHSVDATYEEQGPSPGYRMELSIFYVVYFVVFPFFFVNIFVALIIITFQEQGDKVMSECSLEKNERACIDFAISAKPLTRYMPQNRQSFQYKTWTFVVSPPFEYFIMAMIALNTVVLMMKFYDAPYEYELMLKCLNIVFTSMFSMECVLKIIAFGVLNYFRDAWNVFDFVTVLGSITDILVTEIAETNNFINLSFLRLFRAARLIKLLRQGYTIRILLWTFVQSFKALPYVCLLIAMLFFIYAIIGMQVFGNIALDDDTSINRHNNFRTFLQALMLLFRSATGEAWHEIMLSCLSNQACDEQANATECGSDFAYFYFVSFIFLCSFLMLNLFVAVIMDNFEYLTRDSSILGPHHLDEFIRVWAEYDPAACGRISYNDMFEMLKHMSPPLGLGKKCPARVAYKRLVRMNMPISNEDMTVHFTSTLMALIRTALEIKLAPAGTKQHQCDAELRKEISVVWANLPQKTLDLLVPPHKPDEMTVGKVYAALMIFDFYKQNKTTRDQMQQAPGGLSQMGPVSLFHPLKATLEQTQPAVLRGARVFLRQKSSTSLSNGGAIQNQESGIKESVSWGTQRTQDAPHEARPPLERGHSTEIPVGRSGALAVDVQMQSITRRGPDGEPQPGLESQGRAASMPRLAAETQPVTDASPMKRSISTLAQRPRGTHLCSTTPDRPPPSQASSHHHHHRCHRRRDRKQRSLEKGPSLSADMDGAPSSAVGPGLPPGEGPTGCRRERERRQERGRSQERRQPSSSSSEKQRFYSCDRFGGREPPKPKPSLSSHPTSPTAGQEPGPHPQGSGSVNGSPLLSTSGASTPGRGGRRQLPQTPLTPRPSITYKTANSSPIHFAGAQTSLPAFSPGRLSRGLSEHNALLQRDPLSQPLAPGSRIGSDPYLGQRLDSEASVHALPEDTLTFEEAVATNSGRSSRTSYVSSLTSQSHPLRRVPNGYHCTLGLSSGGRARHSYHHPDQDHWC
Sequence of N-type calcium channel subunits (α1B, α2δ, and β3a) (P54289 25-1103 partner): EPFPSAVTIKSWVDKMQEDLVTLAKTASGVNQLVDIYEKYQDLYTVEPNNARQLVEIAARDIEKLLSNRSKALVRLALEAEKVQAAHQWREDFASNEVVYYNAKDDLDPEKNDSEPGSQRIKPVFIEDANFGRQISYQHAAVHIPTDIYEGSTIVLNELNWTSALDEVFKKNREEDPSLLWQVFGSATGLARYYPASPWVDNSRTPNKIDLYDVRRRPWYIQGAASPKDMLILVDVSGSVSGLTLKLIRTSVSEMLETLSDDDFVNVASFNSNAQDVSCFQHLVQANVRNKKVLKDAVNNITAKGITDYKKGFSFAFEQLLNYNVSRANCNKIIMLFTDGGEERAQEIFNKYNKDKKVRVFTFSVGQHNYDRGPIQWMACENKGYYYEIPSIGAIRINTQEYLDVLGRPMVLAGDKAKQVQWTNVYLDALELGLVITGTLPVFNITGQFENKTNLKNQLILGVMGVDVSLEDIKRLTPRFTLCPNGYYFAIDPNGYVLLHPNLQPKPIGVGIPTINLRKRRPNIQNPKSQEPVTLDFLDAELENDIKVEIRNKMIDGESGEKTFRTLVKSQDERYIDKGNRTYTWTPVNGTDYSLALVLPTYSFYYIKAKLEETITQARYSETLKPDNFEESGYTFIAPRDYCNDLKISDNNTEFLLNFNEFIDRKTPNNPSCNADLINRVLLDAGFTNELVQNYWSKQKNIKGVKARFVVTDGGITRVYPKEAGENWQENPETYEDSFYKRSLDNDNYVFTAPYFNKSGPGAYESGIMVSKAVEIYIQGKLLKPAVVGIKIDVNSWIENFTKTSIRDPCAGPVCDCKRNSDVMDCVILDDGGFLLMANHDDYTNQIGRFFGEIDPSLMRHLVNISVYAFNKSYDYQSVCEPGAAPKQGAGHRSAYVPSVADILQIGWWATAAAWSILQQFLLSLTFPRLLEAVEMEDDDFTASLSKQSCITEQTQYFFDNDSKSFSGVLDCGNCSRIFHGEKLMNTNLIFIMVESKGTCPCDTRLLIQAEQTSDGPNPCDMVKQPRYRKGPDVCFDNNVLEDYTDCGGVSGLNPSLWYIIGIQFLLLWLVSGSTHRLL
Sequence of N-type calcium channel subunits (α1B, α2δ, and β3a) (P54284 whole entry partner): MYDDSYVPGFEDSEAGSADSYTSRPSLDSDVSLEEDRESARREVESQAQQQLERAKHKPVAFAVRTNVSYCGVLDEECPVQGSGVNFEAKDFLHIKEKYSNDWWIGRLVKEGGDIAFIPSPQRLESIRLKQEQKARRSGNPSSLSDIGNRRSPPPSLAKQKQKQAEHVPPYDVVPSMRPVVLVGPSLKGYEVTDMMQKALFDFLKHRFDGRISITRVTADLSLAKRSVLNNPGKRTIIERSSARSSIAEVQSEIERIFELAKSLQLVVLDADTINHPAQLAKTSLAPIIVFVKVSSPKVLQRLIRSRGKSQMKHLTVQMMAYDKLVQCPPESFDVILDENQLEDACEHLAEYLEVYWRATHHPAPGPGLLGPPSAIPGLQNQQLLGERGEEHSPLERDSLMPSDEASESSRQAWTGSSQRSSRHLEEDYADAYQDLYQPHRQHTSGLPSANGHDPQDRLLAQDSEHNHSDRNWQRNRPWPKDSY

In general, IC50 refers to the concentration needed to halve the response being measured. On to `O=C(NC[C@H]1C[C@H](S(=O)(=O)c2cccc(C(F)(F)F)c2)C1)c1ccc(F)c(C(F)(F)F)c1` [Compound 354, 4-fluoro-3-(trifluoromethyl)-N-(((1R,3R)-3-(3-(trifluoromethyl)phenylsulfonyl)cyclobutyl)methyl)benzamide], for which the values for the IC50 in assay [1], in assay [2] and in assay [3] were over 10000 nM, 7060 nM and 140 nM, respectively.

Regarding `Cn1nc(C(F)(F)F)cc1C(=O)NC[C@H]1C[C@H](S(=O)(=O)c2cccc(C(F)(F)F)c2)C1` [Compound 355, 1-methyl-3-(trifluoromethyl)-N-(((1R,3R)-3-(3-(trifluoromethyl)phenylsulfonyl)cyclobutyl)methyl)-1H-pyrazole-5-carboxamide], the IC50 in assay [1] worked out at 1430 nM; in assay [2] it was 740 nM; in assay [3], 190 nM.

For `O=C(NC[C@H]1C[C@H](S(=O)(=O)c2cccc(C(F)(F)F)c2)C1)c1ccc(F)c(Cl)c1` [Compound 357, 3-chloro-4-fluoro-N-(((1R,3R)-3-(3-(trifluorornethyl)phenylsulfonyl)cyclobutyl)methyl)benzamide], the IC50 is over 10000 nM in assay [1], over 10000 nM in assay [2] and 200 nM in assay [3].

On to `O=C(NC[C@H]1C[C@H](S(=O)(=O)c2cccc(C(F)(F)F)c2)C1)c1ccc(C(F)(F)F)cn1` [Compound 358, 5-(trifluoromethyl)-N-(((1R,3R)-3-(3-(trifluoromethyl)phenylsulfonyl)cyclobutyl)methyl)picolinamide], for which the IC50 in assay [1] was 8370 nM; in assay [2] it was over 10000 nM; in assay [3], 190 nM.

Take `O=C(NC[C@H]1C[C@H](S(=O)(=O)c2cccc(C(F)(F)F)c2)C1)c1cn2cc(C(F)(F)F)ccc2n1` [Compound 360, 6-(trifluoromethyl)-N-(((1R,3R)-3-(3-(trifluoromethyl)phenylsulfonyl)cyclobutyl)methyl)imidazo[l,2-a]pyridine-2-carboxamide]: the IC50 in assay [1] was over 10000 nM; in assay [2], over 10000 nM; in assay [3], 190 nM.

As for `O=C(NC[C@H]1C[C@H](S(=O)(=O)c2cccc(C(F)(F)F)c2)C1)c1ccnc(C(F)(F)F)c1` [Compound 361, 2-(trifluoromethyl)-N-(((1R,3R)-3-(3-(trifluoromethyl)phenylsulfonyl)cyclobutyl)methyl)isonicotinamide], the results for the IC50 in assay [1], in assay [2] and in assay [3] were 1620 nM, 200 nM and 460 nM, respectively.

As to `CS(=O)(=O)c1cc(C(F)(F)F)cnc1C(=O)NC[C@H]1C[C@H](S(=O)(=O)c2cccc(C(F)(F)F)c2)C1` [Compound 364, 3-(methylsulfonyl)-5-(trifluoromethyl)-N-(((1R,3R)-3-(3-(trifluoromethyl)phenylsulfonyl)cyclobutyl)methyl)picolinamide], the IC50 was 520 nM in assay [1], 210 nM in assay [2] and 1400 nM in assay [3].

On to `O=C(NC[C@H]1C[C@H](S(=O)(=O)c2cccc(C(F)(F)F)c2)C1)c1ccc(Cl)c(OC(F)(F)F)c1` [Compound 366, 4-chloro-3-(trifluoromethoxy)-N-(((1R,3R)-3-(3-(trifluoromethyl)phenylsulfonyl)cyclobutyl)methyl)benzamide], for which the IC50 in assay [1] was over 10000 nM; in assay [2] it was over 10000 nM; in assay [3], 190 nM.

Take `O=C(NC[C@H]1C[C@H](S(=O)(=O)c2cccc(C(F)(F)F)c2)C1)c1ccnn1CC(F)(F)F` [Compound 367, 1-(2,2,2-trifluoroethyl)-N-(((1R,3R)-3-(3-(trifluoromethyl)phenylsulfonyl)cyclobutyl)methyl)-1H-pyrazole-5-carboxamide]: the IC50 in assay [1] worked out at 900 nM; in assay [2], 350 nM; in assay [3], 850 nM.

With `CS(=O)(=O)c1cc(Cl)ccc1C(=O)NC[C@H]1C[C@H](S(=O)(=O)c2cccc(C(F)(F)F)c2)C1` [Compound 368, 4-chloro-2-(methylsulfonyl)-N-(((1R,3R)3-(3-(trifluoromethyl)phenylsulfonyl)cyclobutyl)methyl)benzamide], the results for the 50% inhibitory concentration (IC50) in assay [1], in assay [2] and in assay [3] were 950 nM, 400 nM and 940 nM, respectively.

On to `O=C(NC[C@H]1C[C@H](S(=O)(=O)c2cccc(C(F)(F)F)c2)C1)c1ccc(Cl)c(Cl)c1` [Compound 369, 3,4-dichloro-N-(((1R,3R)-3-(3-(trifluoromethyl)phenylsulfonyl)cyclobutyl)methyl)benzamide], for which the IC50 is over 10000 nM in assay [1], over 10000 nM in assay [2] and 160 nM in assay [3].

On to `O=C(NC[C@H]1C[C@H](S(=O)(=O)c2cccc(C(F)(F)F)c2)C1)c1cc(F)cc(Cl)c1` [Compound 370, 3-chloro-5-fluoro-N-(((1R,3R)-3-(3-(trifluoromethyl)phenylsulfonyl)cyclobutyl)methyl)benzamide], for which the IC50 in assay [1] was 680 nM; in assay [2], 640 nM; in assay [3], 290 nM.

On to `O=C(NC[C@H]1C[C@H](S(=O)(=O)c2cccc(C(F)(F)F)c2)C1)c1cnc(C(F)(F)F)nc1` [Compound 371, 2-(trifluoromethyl)-N-(((1R,3R)-3-(3-(trifluoromethyl)phenylsulfonyl)cyclobutyl)methyl)pyrimidine-5-carboxamide], for which the IC50 in assay [1] came out at 1060 nM; in assay [2], 660 nM; in assay [3] it was 1160 nM.

Turning to `O=C(NC[C@H]1C[C@H](S(=O)(=O)c2cccc(C(F)(F)F)c2)C1)c1cc(C(F)(F)F)ccn1` [Compound 372, 4-(trifluoromethyl)-N-(((1R,3R)-3-(3-(trifluoromethyl)phenylsulfonyl)cyclobutyl)methyl)picolinamide], the values for the IC50 in assay [1], in assay [2] and in assay [3] were 7170 nM, 9630 nM and 260 nM, respectively.

For the molecule `O=C(NC[C@H]1C[C@H](S(=O)(=O)c2cccc(C(F)(F)F)c2)C1)c1ccc(OC(F)(F)F)cc1` [Compound 373, 4-(trifluoromethoxy)-N-(((1R,3R)-3-(3-(trifluoromethyl)phenylsulfonyl)cyclobutyl)methyl)benzamide], the IC50 in assay [1] turned out to be 820 nM; in assay [2], 610 nM; in assay [3], 250 nM.

`O=C(NC[C@H]1C[C@@H](S(=O)(=O)c2cccc(C(F)(F)F)c2)C1)c1ccc(F)c(C(F)(F)F)c1` [Compound 377, 4-fluoro-3-(trifluoromethyl)-N-(((1S,3S)-3-(3-(trifluoromethyl)phenylsulfonyl)cyclobutyl)methyl)benzamide]: the values for the IC50 in assay [1], in assay [2] and in assay [3] were 2340 nM, 1040 nM and 460 nM, respectively.

Regarding `Cn1nc(C(F)(F)F)cc1C(=O)NC[C@H]1C[C@@H](S(=O)(=O)c2cccc(C(F)(F)F)c2)C1` [Compound 378, 1-methyl-3-(trifluoromethyl)-N-(((1S,3S)-3-(3-(trifluoromethyl)phenylsulfonyl)cyclobutyl)methyl)-1H-pyrazole-5-carboxamide], the IC50 worked out at 2790 nM in assay [1], 1630 nM in assay [2] and 1130 nM in assay [3].

In the case of `O=C(NC[C@H]1C[C@@H](S(=O)(=O)c2cccc(C(F)(F)F)c2)C1)c1ccc(F)c(Cl)c1` [Compound 379, 3-chloro-4-fluoro-N-(((1S,3S)-3-(3-(trifluoromethyl)phenylsulfonyl)cyclobutyl)methyl)benzamide], the figures for the IC50 in assay [1], in assay [2] and in assay [3] were 1810 nM, 300 nM and 830 nM, respectively.

For `O=C(NC[C@H]1C[C@@H](S(=O)(=O)c2cccc(C(F)(F)F)c2)C1)c1ccnc(C(F)(F)F)n1` [Compound 383, 2-(trifluoromethyl)-N-(((1S,3S)-3-(3-(trifluoromethyl)phenylsulfonyl)cyclobutyl)methyl)pyrimidine-4-carboxamide], the IC50 is over 10000 nM in assay [1], 5950 nM in assay [2] and 1360 nM in assay [3].

In the case of `O=C(NC[C@H]1C[C@@H](S(=O)(=O)c2cccc(C(F)(F)F)c2)C1)c1cn2cc(C(F)(F)F)ccc2n1` [Compound 384, 6-(trifluoromethyl)-N-(((1S,3S)-3-(3-(trifluoromethyl)phenylsulfonyl)cyclobutyl)methyl)imidazo[l,2-a]pyridine-2-carboxamide], the IC50 in assay [1] was over 10000 nM; in assay [2] it was 4740 nM; in assay [3] it was 960 nM.

In the case of `O=C(NC[C@H]1C[C@@H](S(=O)(=O)c2cccc(C(F)(F)F)c2)C1)c1ccc(C(F)(F)F)cn1` [Compound 385, 5-(trifluoromethyl)-N-(((1S,3S)-3-(3-(trifluoromethyl)phenylsulfonyl)cyclobutyl)methyl)picolinamide], the IC50 in assay [1] was over 10000 nM; in assay [2], over 10000 nM; in assay [3], 710 nM.

With `O=C(NC[C@H]1C[C@@H](S(=O)(=O)c2cccc(C(F)(F)F)c2)C1)c1ccnc(C(F)(F)F)c1` [Compound 386, 2-(trifluoromethyl)-N-(((1S,3S)-3-(3-(trifluoromethyl)phenylsulfonyl)cyclobutyl)methyl)isonicotinamide], the IC50 stood at 490 nM in assay [1], 270 nM in assay [2] and 2370 nM in assay [3].

For the molecule `O=C(NC[C@H]1C[C@@H](S(=O)(=O)c2cccc(C(F)(F)F)c2)C1)c1ccnn1CC(F)(F)F` [Compound 387, 1-(2,2,2-trifluoroethyl)-N-(((1S,3S)-3-(3-(trifluoromethyl)phenylsulfonyl)cyclobutyl)methyl)-1H-pyrazole-5-carboxamide], the IC50 in assay [1] came out at 720 nM; in assay [2], 710 nM; in assay [3] it was 4220 nM.
